Assay [1] deals with T1, IKZF2 (Helios) (Homo sapiens, UniProt Q96SW2+Q9UKS7).
T1 construct: Leu-Asp junction (codons ctcgac before the linker); mScarlet (behind P2A) (C, cleaved yes); expressed in transfected cells
The assay can be described thus: IKZF2 reporter degradation assay (HEK 293T IKZF2-mNeonGreen reporter cell line). Format: cell-based. Conditions: @ 1 μM, HEK 293T IKZF2-mNeonGreen reporter, 24 hours incubation; for inhibition at 1 µM: HEK-293T, 24 h. In a few lines:
(§1)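 Stable clonal HEK 293T lines express each IKZF-mNeonGreen-P2A-mScarlet fusion. Cells were seeded, attached overnight, then given compound (≤0.5% DMSO, quadruplicate) for 24 h at 37° C. Imaged for percent mNeonGreen-positive cells, segmented on mScarlet. DC50 from four-parameter logistic fit.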

The target in assay [2] is T2, IKZF2 (Helios) (Homo sapiens, UniProt Q9UKS7).
T2 construct: Leu-Asp junction (codons ctcgac before the linker); mScarlet (behind P2A) (C, cleaved yes); expressed in transfected cells
T2 sequence (Q9UKS7 whole entry): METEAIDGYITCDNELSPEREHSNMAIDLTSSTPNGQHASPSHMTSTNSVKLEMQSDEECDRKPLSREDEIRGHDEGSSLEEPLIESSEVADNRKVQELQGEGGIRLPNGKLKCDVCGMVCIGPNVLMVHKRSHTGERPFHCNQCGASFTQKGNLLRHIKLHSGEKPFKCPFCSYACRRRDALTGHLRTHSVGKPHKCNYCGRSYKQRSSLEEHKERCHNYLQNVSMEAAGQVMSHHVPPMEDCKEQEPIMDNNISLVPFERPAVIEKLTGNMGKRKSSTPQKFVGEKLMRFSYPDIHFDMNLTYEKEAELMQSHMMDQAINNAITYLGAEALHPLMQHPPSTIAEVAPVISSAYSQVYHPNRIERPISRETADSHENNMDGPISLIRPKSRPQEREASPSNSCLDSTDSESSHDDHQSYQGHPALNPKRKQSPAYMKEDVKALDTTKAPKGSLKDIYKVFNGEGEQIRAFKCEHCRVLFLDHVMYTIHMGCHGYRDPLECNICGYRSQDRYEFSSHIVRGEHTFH
T2 sequence (Q96SW2 whole entry, further chain): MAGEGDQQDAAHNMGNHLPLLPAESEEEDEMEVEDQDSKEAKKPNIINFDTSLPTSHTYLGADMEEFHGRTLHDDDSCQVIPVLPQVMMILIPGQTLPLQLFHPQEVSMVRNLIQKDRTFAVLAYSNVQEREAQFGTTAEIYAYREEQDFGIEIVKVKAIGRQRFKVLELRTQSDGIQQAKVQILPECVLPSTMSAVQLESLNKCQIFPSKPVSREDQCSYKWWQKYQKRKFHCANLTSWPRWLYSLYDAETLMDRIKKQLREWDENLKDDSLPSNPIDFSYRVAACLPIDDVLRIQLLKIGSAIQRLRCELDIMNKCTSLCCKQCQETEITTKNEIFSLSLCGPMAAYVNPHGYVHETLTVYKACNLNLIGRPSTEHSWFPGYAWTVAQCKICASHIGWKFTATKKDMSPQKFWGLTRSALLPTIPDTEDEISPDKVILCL
T2 sequence (Q16531 whole entry partner): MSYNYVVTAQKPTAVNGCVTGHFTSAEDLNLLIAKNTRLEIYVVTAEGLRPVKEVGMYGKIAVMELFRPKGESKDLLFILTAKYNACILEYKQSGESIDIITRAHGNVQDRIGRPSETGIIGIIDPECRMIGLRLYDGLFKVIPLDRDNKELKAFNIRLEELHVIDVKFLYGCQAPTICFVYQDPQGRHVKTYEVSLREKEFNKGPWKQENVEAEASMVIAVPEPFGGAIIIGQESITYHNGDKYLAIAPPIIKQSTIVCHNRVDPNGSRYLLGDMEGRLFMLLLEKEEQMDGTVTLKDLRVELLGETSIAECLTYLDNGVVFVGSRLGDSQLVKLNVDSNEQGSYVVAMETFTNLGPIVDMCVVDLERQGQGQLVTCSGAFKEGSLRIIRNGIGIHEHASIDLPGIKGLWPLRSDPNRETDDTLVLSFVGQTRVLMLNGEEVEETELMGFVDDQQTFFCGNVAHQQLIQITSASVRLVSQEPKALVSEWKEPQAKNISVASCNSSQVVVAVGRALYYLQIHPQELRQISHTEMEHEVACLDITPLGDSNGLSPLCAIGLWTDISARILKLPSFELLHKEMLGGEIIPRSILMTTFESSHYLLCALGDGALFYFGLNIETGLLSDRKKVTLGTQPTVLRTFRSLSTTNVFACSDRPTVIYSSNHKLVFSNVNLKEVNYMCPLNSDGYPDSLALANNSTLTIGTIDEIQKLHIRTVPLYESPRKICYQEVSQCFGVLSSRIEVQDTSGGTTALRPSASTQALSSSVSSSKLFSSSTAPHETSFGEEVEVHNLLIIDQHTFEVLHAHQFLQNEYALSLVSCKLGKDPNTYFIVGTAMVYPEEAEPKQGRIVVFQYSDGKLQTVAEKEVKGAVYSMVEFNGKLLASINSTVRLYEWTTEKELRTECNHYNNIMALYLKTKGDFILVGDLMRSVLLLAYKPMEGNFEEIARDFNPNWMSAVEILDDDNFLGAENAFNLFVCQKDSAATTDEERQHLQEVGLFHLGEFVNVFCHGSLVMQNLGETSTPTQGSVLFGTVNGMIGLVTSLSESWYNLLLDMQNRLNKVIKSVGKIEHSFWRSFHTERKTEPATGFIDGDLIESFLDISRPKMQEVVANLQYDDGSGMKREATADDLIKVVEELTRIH
The description is as above. The class given is cell-based. Particulars: HEK 293T IKZF2-mNeonGreen reporter, 24 hours incubation. In a few lines: as §1

For assay [3], the target named is T3, human E3 ligase component cereblon (CRBN) (Homo sapiens, UniProt Q96SW2).
T3 construct: host or cells: HEK293T
T3 sequence (Q96SW2 whole entry): as the sequence (Q96SW2 whole entry, further chain) above
T3 sequence (Q16531 whole entry partner): as the sequence (Q16531 whole entry partner) above
The experiment in a line: Cereblon (CRBN) target engagement, NanoBRET TE Intracellular E3 Ligase Assay in transfected HEK-293T cells. Conditions: read-out: CRBN Binding EC50. In a few lines: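 HEK-293T cells transiently co-transfected with NanoLuc-CRBN (N-terminal NanoLuc) and DDB1 were dosed with CRBN tracer and an 11-point compound series (typically 10 μM to 100 pM) for 2 h at 37° C. BRET at 450/610 nm gave IC50 by four-parameter logistic fit.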
In general terms: In BRET a luciferase serves as donor, and the signal depends on an acceptor being close.

The target in the next assay is T4, IKZF3 (Aiolos) (Homo sapiens, UniProt Q9UKT9).
T4 construct: Leu-Asp junction (codons ctcgac before the linker); mScarlet (behind P2A) (C, cleaved yes); expressed in transfected cells
T4 sequence (Q96SW2 whole entry partner): as the sequence (Q96SW2 whole entry, further chain) above
T4 sequence (Q16531 whole entry partner): as the sequence (Q16531 whole entry partner) above
T4 sequence (Q9UKT9 whole entry): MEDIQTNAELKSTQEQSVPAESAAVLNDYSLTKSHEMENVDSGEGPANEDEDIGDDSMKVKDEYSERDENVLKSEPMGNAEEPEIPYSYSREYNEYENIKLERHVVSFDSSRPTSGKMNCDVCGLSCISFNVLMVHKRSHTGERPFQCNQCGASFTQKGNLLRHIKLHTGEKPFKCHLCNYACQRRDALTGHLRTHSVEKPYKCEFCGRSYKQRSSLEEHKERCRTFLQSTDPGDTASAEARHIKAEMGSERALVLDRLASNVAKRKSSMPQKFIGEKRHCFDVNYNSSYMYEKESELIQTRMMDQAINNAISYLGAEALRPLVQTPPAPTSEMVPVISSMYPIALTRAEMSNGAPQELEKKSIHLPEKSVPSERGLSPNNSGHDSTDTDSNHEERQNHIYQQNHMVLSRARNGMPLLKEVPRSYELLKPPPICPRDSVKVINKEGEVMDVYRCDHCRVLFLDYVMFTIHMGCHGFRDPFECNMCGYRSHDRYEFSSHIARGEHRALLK
The assay can be described thus: IKZF3 reporter degradation assay (HEK 293T IKZF3-mNeonGreen reporter cell line). The class given is cell-based. Particulars: HEK 293T IKZF3-mNeonGreen reporter, 24 hours incubation; for inhibition at 1 µM: HEK-293T, 24 h. The text has this: Polycistronic plasmids were constructed for the mammalian expression of fluorescent reporter fusions of human transcription factors IKZF1 (Ikaros), IKZF2 (Helios), and IKZF3 (Aiolos). The respective protein sequences had their C-terminal end joined to a GGGGS linker repeated three times followed by mNeonGreen, P2A sequence, and mScarlet. The DNA sequences of the open reading frames are as follows:
IKZF1, IKZF2, and IKZF3 constructs were cloned into the UCOE Hygromycin expression vectors (Millipore Sigma). Reporter constructs were transfected using cationic lipid reagents into adherent HEK 293T cells and stable integrants were selected by treatment with 200 μg/mL hygromycin B. Clonal populations were obtained from the population of stable integrants either by limiting dilution or fluorescence activated cell sorting.
The clonal stable cell lines were maintained under constant 200 μg/mL hygromycin B selection while being passaged for use in the degradation assays. […] The fluorescence intensity of the IKZF1/2/3-mNeonGreen (FITC channel) and mScarlet (PE channel) reporters were routinely analyzed by flow cytometry to confirm consistent expression levels between experiments.
The IKZF1/IKZF2/IKZF3 degradation assays were carried out by harvesting the HEK 293T reporter cell lines and resuspending the cells in media formulated for reduced background fluorescence (FluoroBrite; Thermo Fisher). The respective cell lines were seeded at a density of 4000 cells/well into black-walled 384-well optical grade assay tissue culture plates. The cells were incubated overnight at 37° C. to allow for attachment to the assay plate. Dilutions of the compounds were prepared in DMSO from 10 mM compound stocks. The assay plates were treated with appropriate concentrations of the compounds by dispensing the DMSO dilutions in quadruplicate wells with an upper limit of 0.5% final DMSO.
After 24 hours incubation with the compounds, the assay plates were imaged on an ImageXpress Pico microscopy system (cells maintained at 37° C. during imaging) to obtain the fluorescent readouts. The assay plates were imaged in the FITC and Tetramethylrhodamine (TRITC) channels to obtain the mNeonGreen fluorescence intensity (reporter degradation data) and mScarlet fluorescence intensity (for cell segmentation). 293T-IKZF1 and 293T-IKZF3 reporter cell lines were imaged with exposures of 500 milliseconds (ms) for both FITC and TRITC channels, while the 293T-IKZF2 reporter cell line was imaged with exposures of 1000 ms for FITC and 1250 ms for TRITC. The resulting data was analyzed with Cell Reporter Xpress software using the 2-channel cell scoring analysis with a “percent positive” readout. The TRITC channel was selected for the “nuclei” segmentation with a threshold of 20 while the FITC channel was selected for the “Marker 1” segmentation and a threshold of 100 for the IKZF1 and IKZF3 reporter lines. […] The minimum segmentation width was set to 6 micrometers and the maximum segmentation width was set to 15 micrometers for all cell lines. The DC50 calculations were determined by regression to best fit four-parameter logistic curves using GraphPad Prism.

The text below walks through data of patent US20250100996A1, “HETEROCYCLOALKYL AND HETEROARYL COMPOUNDS AND PHARMACEUTICAL COMPOSITIONS THAT MODULATE IKZF2” (Plexium, Inc., priority 2021, published 2025).

Each structure is given as a SMILES string. Some results are limits rather than exact numbers.

As a reminder, the inhibition is the change of the read-out against control, counted positive when it falls. Read a high inhibition as a response far below the control. As usually defined, the DC50 is the concentration giving 50% degradation. Read a low DC50 as degradation at low concentration. Broadly, the EC50 is the concentration that produces a half-maximal response.

T1 sequence (Q9UKS7 whole entry): as the sequence (Q9UKS7 whole entry) above
T1 sequence (Q96SW2 whole entry): as the sequence (Q96SW2 whole entry, further chain) above
T1 sequence (Q16531 whole entry partner): as the sequence (Q16531 whole entry partner) above

In the case of `O=C1CCC(N2Cc3cc(O[C@H]4CCCC[C@@H]4N4CC(C5CCN(C6CCC6)CC5)C4)ccc3C2=O)C(=O)N1` (stereo partly drawn) [Compound 56-A, 3-(5-(((1S,2S)-2-(3-(1-cyclobutylpiperidin-4-yl)azetidin-1-yl)cyclohexyl)oxy)-1-oxoisoindolin-2-yl)piperidine-2,6-dione], at IKZF2 (Helios) [1], 1 µM produced 60.8% inhibition. Besides, the figures for the DC50 at IKZF2 (Helios) [2] and at IKZF3 (Aiolos) were 30 nM and more than 30000 nM, respectively. For the same compound, the EC50 in assay [3] amounted to 50 nM.
For `O=C1CCC(N2Cc3cc(O[C@@H]4CCCC[C@@H]4N4CC(c5cncc(Cl)c5)C4)ccc3C2=O)C(=O)N1` (mixture of isomers) [Compound 155-B, Rac-3-(5-(((cis)-2-(3-(5-chloropyridin-3-yl)azetidin-1-yl)cyclohexyl)oxy)-1-oxoisoindolin-2-yl)piperidine-2,6-dione] the same measures were 75.5%, 11 nM, more than 30000 nM and 18 nM.
For `O=C1CCC(N2Cc3cc(O[C@H]4CCCC[C@@H]4N4CC(c5ccc6ccccc6n5)C4)ccc3C2=O)C(=O)N1` (mixture of isomers) [Compound 152-B, Rac-3-(1-oxo-5-(((trans)-2-(3-(quinolin-2-yl)azetidin-1-yl)cyclohexyl)oxy)isoindolin-2-yl)piperidine-2,6-dione] the same measures were 43.9%, 41 nM, more than 30000 nM and 3 nM.
As to `O=C1CCC(N2Cc3cc(O[C@@H]4CCCC[C@@H]4N4CC(c5ccc6ccccc6n5)C4)ccc3C2=O)C(=O)N1` (mixture of isomers) [Compound 146-B, Rac-3-(1-oxo-5-(((cis)-2-(3-(quinolin-2-yl)azetidin-1-yl)cyclohexyl)oxy)isoindolin-2-yl)piperidine-2,6-dione], 1 µM produced 74.9% inhibition on IKZF2 (Helios) [1]. Moreover, the values for the DC50 on IKZF2 (Helios) [2] and at IKZF3 (Aiolos) were 7 nM and more than 30000 nM, respectively. Also, the EC50 in assay [3] turned out to be 12 nM.
At IKZF2 (Helios) [1], `O=C1CCC(N2Cc3cc(O[C@@H]4CCCC[C@@H]4N4CC(c5ccc6ccccc6n5)C4)ccc3C2=O)C(=O)N1` (single isomer, unassigned) [Compound 91-B] returned an inhibition at 1 µM of 47.3%. Besides, the DC50 at IKZF2 (Helios) [2] is 29 nM; on IKZF3 (Aiolos) it was more than 30000 nM. Besides, the EC50 in assay [3] stood at 5 nM.
Take `O=C1CCC(N2Cc3cc(O[C@H]4CCCC[C@H]4N4CC(c5ccncc5)C4)ccc3C2=O)C(=O)N1` (single isomer, unassigned) [Compound 136-B]: the “IKZF2 % Degradation @ 1 μM” value on IKZF2 (Helios) [1] is reported as 61.4%. Besides, the DC50 at IKZF2 (Helios) [2] was 30 nM; at IKZF3 (Aiolos) it was more than 30000 nM. Besides, in assay [3], the concentration for a half-maximal effect (EC50) was determined as 34 nM.
For the compound `O=C1CCC(N2Cc3cc(O[C@H]4CCCC[C@@H]4N4CC(C5CCN(C(=O)c6ccccc6)CC5)C4)ccc3C2=O)C(=O)N1` (stereo partly drawn) [Compound 24-A, 3-(5-{[(1S,2S)-2-[3-(1-benzoylpiperidin-4-yl)azetidin-1-yl]cyclohexyl]oxy}-1-oxo-2,3-dihydro-1H-isoindol-2-yl)piperidine-2,6-dione], 1 µM produced 76.7% inhibition against IKZF2 (Helios) [1]. Further, the values for the DC50 at IKZF2 (Helios) [2] and on IKZF3 (Aiolos) were 6 nM and more than 30000 nM, respectively. Further, the EC50 in assay [3] was 13 nM.
For `O=C1CCC(N2Cc3cc(O[C@H]4CCCC[C@@H]4N4CC(c5ccc(Cl)cn5)C4)ccc3C2=O)C(=O)N1` (single isomer, unassigned) [Compound 99-B] the same measures were 81.3%, 6 nM, more than 30000 nM and 4 nM.
For `O=C1CCC(N2Cc3cc(O[C@H]4CCCC[C@@H]4N4CC(c5ccc6ccccc6n5)C4)ccc3C2=O)C(=O)N1` (single isomer, unassigned) [Compound 89-B] the same measures were 86.2%, 2 nM, more than 30000 nM and 3 nM.
In the case of `O=C1CCC(N2Cc3cc(O[C@H]4CCCC[C@@H]4N4CC(c5ccc(C(F)(F)F)nc5)C4)ccc3C2=O)C(=O)N1` (single isomer, unassigned) [Compound 127-B], at IKZF2 (Helios) [1], the “IKZF2 % Degradation @ 1 μM” value stood at 95.4%. The figures for the DC50 on IKZF2 (Helios) [2] and on IKZF3 (Aiolos) were 6 nM and 63.3 nM, respectively. Besides, in assay [3], the EC50 was determined as 26 nM. Also, at IKZF3 (Aiolos) (@ 1 μM), the “IKZF3 % Degradation @ 1 μM” value turned out to be 39%.
Turning to `O=C1CCC(N2Cc3cc(O[C@H]4CCCC[C@@H]4N4CC(c5ccc(C(F)(F)F)nc5)C4)ccc3C2=O)C(=O)N1` (single isomer, unassigned) [Compound 126-B], the results for the inhibition at 1 µM on IKZF2 (Helios) [1] and against IKZF3 (Aiolos) (@ 1 μM) were 94.8% and 39.5%, respectively. The DC50 at IKZF2 (Helios) [2] is 6 nM; at IKZF3 (Aiolos), 86.6 nM. Besides, the EC50 in assay [3] worked out at 7 nM.
Regarding `O=C1CCC(N2Cc3cc(O[C@H]4CCCC[C@@H]4N4CC(c5ncc(C(F)(F)F)cn5)C4)ccc3C2=O)C(=O)N1` (single isomer, unassigned) [Compound 123-B], the “IKZF2 % Degradation @ 1 μM” value at IKZF2 (Helios) [1] came to 69.6%. Further, the results for the DC50 at IKZF2 (Helios) [2] and at IKZF3 (Aiolos) were 0.1 nM and more than 30000 nM, respectively. In addition, the EC50 in assay [3] turned out to be 1 nM.
As for `O=C1CCC(N2Cc3cc(O[C@H]4CCCC[C@@H]4N4CC(c5cncc(Cl)c5)C4)ccc3C2=O)C(=O)N1` (single isomer, unassigned) [Compound 116-B], the inhibition at 1 µM against IKZF2 (Helios) [1] worked out at 73.7%. In addition, the DC50 was 4 nM at IKZF2 (Helios) [2] and more than 30000 nM on IKZF3 (Aiolos). For the same compound, in assay [3], the EC50 amounted to 6 nM.
Take `O=C1CCC(N2Cc3cc(O[C@H]4CCCC[C@@H]4N4CC(c5ccc(C(F)(F)F)cn5)C4)ccc3C2=O)C(=O)N1` (single isomer, unassigned) [Compound 130-B]: the inhibition at 1 µM against IKZF2 (Helios) [1] came to 94.8%; at IKZF3 (Aiolos) (@ 1 μM), 37.4%. The DC50 at IKZF2 (Helios) [2] was found to be 5 nM; on IKZF3 (Aiolos), 44.1 nM. Also, the EC50 in assay [3] is 10 nM.
With `O=C1CCC(N2Cc3cc(OC4CCCCC4N4CC(c5ccnnc5)C4)ccc3C2=O)C(=O)N1` (centres unmarked) [Compound 143-B, 3-(1-oxo-5-((2-(3-(pyridazin-4-yl)azetidin-1-yl)cyclohexyl)oxy)isoindolin-2-yl)piperidine-2,6-dione], on IKZF2 (Helios) [1], the inhibition at 1 µM turned out to be 20.4%. The DC50 at IKZF2 (Helios) [2] is 581 nM; on IKZF3 (Aiolos) it was more than 30000 nM. Further, in assay [3], the EC50 came out at 247 nM.
Turning to `O=C1CCC(N2Cc3cc(OC4CCCCC4N4CC(C(=O)N5CCCCC5)C4)ccc3C2=O)C(=O)N1` (single isomer, unassigned) [Compound 22-A, 3-(1-oxo-5-((2-(3-(piperidine-1-carbonyl)azetidin-1-yl)cyclohexyl)oxy)isoindolin-2-yl)piperidine-2,6-dione], the inhibition at 1 µM against IKZF2 (Helios) [1] was found to be 75.9%. The values for the DC50 at IKZF2 (Helios) [2] and at IKZF3 (Aiolos) were 11 nM and more than 30000 nM, respectively. Further, the EC50 in assay [3] turned out to be 31 nM.
For `O=C1CCC(N2Cc3cc(O[C@H]4CCCC[C@@H]4N4CC(c5ncc(C6CC6)cn5)C4)ccc3C2=O)C(=O)N1` (single isomer, unassigned) [Compound 134-B] the same measures were 70.4%, 5 nM, more than 30000 nM and 5 nM.
